{
  "source": "patent US8722897B2",
  "about": "“Metal complexes of thiourea and derivatives as metal delivering anti-cancer and anti-inflammatory agents” (priority 2010, dated 2014)",
  "key": {"[1]": {"tested_on": "HeLa, human cervical epithelioid carcinoma", "experiment": "Cytotoxicity assay (MTT), HeLa", "details": "read-out: Cytotoxicities (IC50), HeLa, 72 h, MTT"}, "[2]": {"target": "T1, thioredoxin reductase (TrxR) (Homo sapiens, UniProt Q16881)", "T1 sequence (Q16881 1-649)": "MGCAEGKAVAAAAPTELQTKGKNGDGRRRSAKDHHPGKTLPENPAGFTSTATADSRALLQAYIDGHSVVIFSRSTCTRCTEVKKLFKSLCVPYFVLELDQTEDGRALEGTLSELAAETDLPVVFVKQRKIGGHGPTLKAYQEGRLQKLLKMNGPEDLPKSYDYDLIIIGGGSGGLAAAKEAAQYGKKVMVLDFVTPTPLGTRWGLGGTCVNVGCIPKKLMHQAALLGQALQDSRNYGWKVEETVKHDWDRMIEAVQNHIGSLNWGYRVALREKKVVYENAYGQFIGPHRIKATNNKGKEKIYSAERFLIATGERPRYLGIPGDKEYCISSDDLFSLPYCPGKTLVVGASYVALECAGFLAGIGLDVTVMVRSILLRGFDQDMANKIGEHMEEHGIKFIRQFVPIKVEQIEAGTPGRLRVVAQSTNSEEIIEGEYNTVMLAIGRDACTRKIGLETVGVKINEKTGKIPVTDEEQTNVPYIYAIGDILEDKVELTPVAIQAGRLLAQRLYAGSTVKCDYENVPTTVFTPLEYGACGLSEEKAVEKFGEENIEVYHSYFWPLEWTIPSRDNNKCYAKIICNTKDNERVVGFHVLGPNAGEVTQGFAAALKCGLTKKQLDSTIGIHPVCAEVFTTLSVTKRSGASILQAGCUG", "experiment": "Cellular thioredoxin reductase activity of treated HeLa cells", "assay_type": "cell-based", "details": "one-hour treatment", "procedure": "(§1) Cells were seeded at 2×10^5/well in 6-well plates and incubated for 24 hours. The metal thiourea compounds (10^−9 to 10^−4 M) were serially diluted and added to the cells (final DMSO concentrations≦1%). After an one-hour incubation, cells were washed thrice with phosphate buffered saline and 100 μL ice-cold lysis buffer (50 mM phosphate buffer, pH 7.4, 1 mM EDTA, 0.1% Triton-X 100) were added to the cell layer. Cell lysis was carried on ice for 5 minutes and the cell lysates were collected and stored at −80° C. or assayed immediately. Cell lysates (10 μg proteins) were added to a mixture (100 μL) containing 100 mM phosphate, pH 7.4, 1 mM EDTA and 0.2 mM NADPH."}, "[3]": {"tested_on": "glutathione peroxidase (GPx)", "experiment": "Cellular glutathione peroxidase activity of treated HeLa cells", "assay_type": "cell-based, human", "details": "one-hour treatment", "procedure": "as §1, with “immediately.” for “immediately. Cell lysates (10 μg proteins) were added to a mixture (100 μL) containing 100 mM phosphate, pH 7.4, 1 mM EDTA and 0.2 mM NADPH.”\nCell lysates (10 μg proteins) were added to a mixture containing 100 mM phosphate, pH 7.4, 2 mM GSH, 1 U glutathione reductase, and 0.2 mM NADPH. Reaction was initiated by adding tert-butyl hydroperoxide (300 μM) and the NADPH oxidation was measured as decreases in O.D.340 nm in 10 min. GPx activities (ΔO.D.340 nm/min) were determined by subtracting the spontaneous NADPH oxidation in the absence of tert-butyl hydroperoxide."}, "[4]": {"target": "T2, Glutathione reductase (GR) (Homo sapiens, UniProt P00390)", "T2 construct": "endogenous in cells; host or cells: HeLa", "T2 sequence (P00390 44-522)": "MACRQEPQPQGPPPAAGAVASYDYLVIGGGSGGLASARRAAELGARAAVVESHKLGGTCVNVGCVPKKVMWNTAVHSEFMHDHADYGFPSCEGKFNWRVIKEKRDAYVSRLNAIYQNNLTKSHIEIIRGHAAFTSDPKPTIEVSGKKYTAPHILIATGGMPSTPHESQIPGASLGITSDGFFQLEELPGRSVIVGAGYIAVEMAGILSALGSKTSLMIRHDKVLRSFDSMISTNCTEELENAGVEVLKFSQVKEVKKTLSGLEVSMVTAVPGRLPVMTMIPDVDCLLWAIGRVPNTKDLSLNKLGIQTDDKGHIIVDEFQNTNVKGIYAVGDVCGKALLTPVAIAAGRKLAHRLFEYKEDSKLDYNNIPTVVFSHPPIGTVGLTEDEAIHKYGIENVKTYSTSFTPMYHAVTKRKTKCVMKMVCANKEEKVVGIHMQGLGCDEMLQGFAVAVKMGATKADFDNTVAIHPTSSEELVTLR", "experiment": "Cellular glutathione reductase activity of treated HeLa cells", "assay_type": "cell-based", "details": "one-hour treatment, up to 100 μM", "procedure": "as §1, with “immediately.” for “immediately. Cell lysates (10 μg proteins) were added to a mixture (100 μL) containing 100 mM phosphate, pH 7.4, 1 mM EDTA and 0.2 mM NADPH.”\nCell lysates (10 μg proteins) were added to a mixture containing 100 mM phosphate, pH 7.4, 1 mM EDTA, 1 mM GSSG and 0.2 mM NADPH. Reaction was initiated by adding DTNB (3 mM final) and the increases in O.D.412 nm were measured for 10 min. GR activities were determined by subtracting the increases in O.D.412 nm in the absence of GSSG."}, "[5]": {"experiment": "Cytotoxicity assay (MTT), HeLa", "details": "human, HeLa cells"}, "[6]": {"experiment": "Cytotoxicity assay (MTT), HepG2", "details": "human, HepG2 cells"}, "[7]": {"experiment": "Cytotoxicity assay (MTT), SUNE1", "details": "human, SUNE1 cells"}, "[8]": {"experiment": "Cytotoxicity assay (MTT), NCI-H460", "details": "human, NCI-H460 cells"}, "[9]": {"tested_on": "panel of cancer cell lines", "details": "Homo sapiens, read-out: half maximal inhibitory concentrations (IC50), panel of cancer cell lines"}, "[10]": {"tested_on": "HeLa, human cervical epithelioid carcinoma"}, "[11]": {"tested_on": "HepG2, human hepatocellular carcinoma"}, "[12]": {"tested_on": "SUNE1, human nasopharyngeal carcinoma"}, "[13]": {"tested_on": "NCI-H460 = human lung carcinoma"}, "[14]": {"tested_on": "NCI-H460 non-small cell lung cancer cells", "assay_type": "in vivo, mice", "procedure": "The in vivo experiment was conducted in Pearl Materia Medica Development (Shenzhen) Limited and performed with approval from the Committee on the Use of Live Animals for Teaching and Research. SPF grade four-week-old female BALB/c AnN-nu mice (nude mice, 16-18 g) were purchased. Tumor cells (5×10^6) resuspended in RPMI medium were implanted by subcutaneous injection on the right flank of the mice. When tumors were approximately 50 mm^3 in size, animals were randomly separated into 3 groups to receive treatment of twice-a-week intraperitoneal injection of 10% PET vehicle control (where 10% PET=6% polyethylene glycol 400, 3% ethanol, 1% Tween 80 and 90% PBS), complex 1 (100 mg/kg) or cyclophosphamide (30 mg/kg) for 8 times. After 28 days, the mice were sacrificed and the tumors were isolated and weighted."}},
  "note": "Like-named read-outs stand apart in the source and are kept apart here.",
  "data": [
    {"smiles": "O=[N+]([O-])[O-].[Ag+]", "note": "[AgNO3, reference compound]", "values": [
      {"measurement": "IC50", "setting": "[1]", "result": "32.1 ± 1.2", "unit": "µM"}
    ]},
    {"smiles": "COc1ccc(N2CCN(c3ccc(OC)cc3)C2=S)cc1", "note": "[TU, 1,3-bis(4-methoxyphenyl)imidazolidine-2-thione, reference compound]", "values": [
      {"measurement": "effect on cellular TrxR activity, added up to 100 μM", "setting": "[2]", "result": "not affected"},
      {"measurement": "effect on cellular GPx activity, added up to 100 μM", "setting": "[3]", "result": "not affected"},
      {"measurement": "effect on cellular GR activity, added up to 100 μM", "setting": "[4]", "result": "not affected"},
      {"measurement": "IC50 at 72 h", "setting": "[5]", "result": "> 100", "unit": "µM"},
      {"measurement": "IC50 at 72 h", "setting": "[6]", "result": "> 100", "unit": "µM"},
      {"measurement": "IC50 at 72 h", "setting": "[7]", "result": "> 100", "unit": "µM"},
      {"measurement": "IC50 at 72 h", "setting": "[8]", "result": "> 100", "unit": "µM"},
      {"measurement": "IC50", "setting": "[9]", "result": "> 100", "unit": "µM"}
    ]},
    {"smiles": "F[P-](F)(F)(F)(F)F.NC(N)=S.NC(N)=S.[Cu+]", "note": "[complex 3, [Cu(TU)2]PF6]", "values": [
      {"measurement": "effect on cellular TrxR activity, added up to 100 μM", "setting": "[2]", "result": "not affected"},
      {"measurement": "effect on cellular GPx activity, added up to 100 μM", "setting": "[3]", "result": "not affected"},
      {"measurement": "effect on cellular GR activity, added up to 100 μM", "setting": "[4]", "result": "not affected"},
      {"measurement": "IC50", "setting": "[10]", "result": "12.7 ± 0.9", "unit": "µM"},
      {"measurement": "IC50", "setting": "[11]", "result": "13 ± 0.9", "unit": "µM"},
      {"measurement": "IC50", "setting": "[12]", "result": "8.5 ± 1", "unit": "µM"},
      {"measurement": "IC50", "setting": "[13]", "result": "11.2 ± 0.9", "unit": "µM"}
    ]},
    {"smiles": "O=P1(N(CCCl)CCCl)NCCCO1", "note": "(stereo not drawn) [cyclophosphamide]", "values": [
      {"measurement": "Tumor volume, Day 13", "setting": "[14]; Day 13, 30 mg/kg i.p. twice a week", "result": "325.041 ± 170.053", "unit": "mm^3"},
      {"measurement": "Tumor volume, Day 17", "setting": "[14]; Day 17, 30 mg/kg i.p. twice a week", "result": "639.465 ± 422.362", "unit": "mm^3"},
      {"measurement": "Tumor volume, Day 21", "setting": "[14]; Day 21, 30 mg/kg i.p. twice a week", "result": "1032.258 ± 594.026", "unit": "mm^3"},
      {"measurement": "Tumor volume, Day 25", "setting": "[14]; Day 25, 30 mg/kg i.p. twice a week", "result": "1474.100 ± 900.357", "unit": "mm^3"},
      {"measurement": "Tumor volume, Day 29", "setting": "[14]; Day 29, 30 mg/kg i.p. twice a week", "result": "1438.735 ± 845.815", "unit": "mm^3"}
    ]}
  ]
}
